This note sets out measurements from US6958345B2, “2-hydroxymethylcyclopropylidene methylpurines and -pyrimidines as antiviral agents” (The Regents of the University of Michigan, priority 1997, dated 2005).

In data set [1] the test system is HCMV. The data set is described as follows: HCMV plaque reduction assay in HFF cells. It counts as cell-based, Human CMV (HCMV). To be noted: for IC50: HFF cells, plaque reduction; for activity against HCMV (in words): racemic analogues. The protocol: (§1) Cells and viruses. The routine growth and passage of KB cells was performed in monolayer cultures using minimal essential medium (MEM) with either Hanks salts [MEM(H)] or Earle salts [MEM(E)] supplemented with 10% calf serum. The sodium bicarbonate concentration was varied to meet the buffering capacity required. Cultures of diploid human foreskin fibroblasts (HFF) or MRC-5 cells were grown in medium consisting of MEM(E) with 10% fetal bovine serum. Cells were passaged at 1:2 to 1:10 dilutions according to conventional procedures by using 0.05% trypsin plus 0.02% EDTA in a HEPES buffered salt solution (HBS) (Shipman, C., Jr., Proc. Soc. Exp. Biol. 130:305-310 (1969)) as described previously. Turk, S. R., et al., Antimicrob. Agents Chemother. 31:544-550 (1987). HFF and MRC-5 cells were passaged only at 1:2 dilutions. CEM cells were maintained in suspension culture as detailed previously. Kucera, L. S., et al., AIDS Res. Human Retroviruses 9:307-314 (1993).
(§2) Virological procedures. Stock HCMV was prepared by infecting HFF cells at a multiplicity of infection (m.o.i.) of <0.01 plaque-forming units (p.f.u.) per cell. Cell growth medium was changed every four days until cytopathology was evident in all cells (approximately 21 days). Supernatant fluids were retained as the virus stock. High titer HSV-1 stocks were prepared by infecting KB cells at an m.o.i. of <0.1 as detailed previously. Turk, S. R., et al., Antimicrob. Agents Chemother. 31:544-550 (1987). Virus titers were determined using monolayer cultures of HFF cells for HCMV and monolayer cultures of BSC-1 cells for HSV-1 as described earlier. Prichard, M. N., et al., J. Virol. Methods 28:101-106 (1990). Briefly, HFF or BSC-1 cells were planted as described above in 96-well cluster dishes and incubated overnight at 37° C. in a humidified 3% CO297% air atmosphere. The next day cultures were inoculated with HCMV or HSV-1 and serially diluted 1:3 across the remaining eleven columns of the 96-well plate. Cultures were incubated at 37° C. for 2 hr to permit virus adsorption and then virus inoculum was replaced with 0.2 mL of fresh medium. Cultures were incubated for seven days for HCMV, two or three days for HSV-1, medium was removed, and the cell sheets were stained with 0.1% crystal violet in 20% methanol. Plaques were enumerated under 20-fold magnification in wells having the dilution which gave 5 to 20 plaques per well. Virus titers were calculated according to the following Formula: Titer (p.f.u./mL)=number of plaques×5×3^n; where n represents the nth dilution of the virus used to infect the well in which plaques were enumerated.
(a) HCMV. The effect of compounds on the replication of HCMV has been measured using a plaque reduction assay. HFF cells in 24-well cluster dishes were infected with approximately 100 p.f.u. of HCMV per cm^2 cell sheet using the procedures detailed above. Following virus adsorption, compounds dissolved in growth medium were added to duplicate wells in three to six selected concentrations. Following incubation at 37° C. for 7 to 10 days, cell sheets were fixed, stained with crystal violet and microscopic plaques enumerated as described above. Drug effects were calculated as a percentage of reduction in number of plaques in the presence of each drug concentration compared to the number observed in the absence of drug. Ganciclovir (DHPG) was used as a positive control in all experiments.
(§3) Data Analysis. Dose-response relationships were constructed by linearly regressing the percent inhibition of parameters derived in the preceding sections against log drug concentrations. Fifty-percent inhibitory (IC50) concentrations were calculated from the regression lines. Samples containing positive controls (acyclovir for HSV-1, ganciclovir for HCMV, and 2-acetylpyridine thiosemicarbazone for cytotoxicity) were used in all assays.
(Plaque reduction counts the foci of infection that form in a cell layer.)

Data set [2] concerns HSV-1. The data set is described as follows: HSV-1 ELISA in BSC-1 cells. The class given is cell-based, herpes simplex 1 (HSV-1). To be noted: for IC50: ELISA. The protocol: as §2
(b) HSV-1. An enzyme-linked immunosorbent assay (ELISA) was employed to detect HSV-1. 96-well cluster dishes were planted with BSC-1 cells at 10,000 cells per well, in a total volume of 200 μL per well of MEM(E) plus 10% calf serum. After overnight incubation at 37° C., drug and HSV-1 was added at the rate of 100 PFU/well. ELISA plates were blocked with 200 μL per well of 10% calf serum and 0.05% tween in HBS. After incubation for 30 minutes, the blocking agent was rinsed two times with HBS-T. A 1:400 dilution of AP conjugated rabbit anti-HSV-1 antibody in HBS-F was added. Plates were sealed with adhesive sheet, and incubated on rocker for one hour at 37° C. Plates were developed in the dark with 100 μL per well of substrate solution containing p-nitrophenyl phosphate. Plates were read at […]. Drug effects were calculated as a percentage of the reduction in virus in the presence of each drug concentration compared to the titer obtained in the absence of drug. Acyclovir was used as a positive control in all experiments.
as §3
Background: An ELISA detects its analyte on a solid surface through an enzyme-linked reagent.

The subject of data set [3] is HIV-1. In words: HIV-1 reverse transcriptase assay in infected CEM cells. It counts as cell-based, strain IIIB of HIV-1. The protocol: (d) HIV-1. Reverse transcriptase (RT) was employed as a marker for HIV-1. This assay measured the presence of HIV in supernatants of CEM cells infected with strain IIIB of HIV-1 by the amount of RT activity. Cells were grown, infected, and incubated in the presence of seven concentrations (one-half log10 dilutions) beginning at 1 or 100 μM of compounds to be assayed. Procedures and the RT assay were performed as detailed previously. Kucera, L. S., et al., AIDS Res. Human Retroviruses 9:307-314 (1993); White, E. L., et al., Antiviral Res. 16:257-266 (1991).

Data set [4] has as its system HFF cells. The data set is described as follows: Cytotoxicity in stationary HFF cells, microscopic inspection. It counts as cell-based, human. The protocol:
as §1
(§4) Cytotoxicity assays. Two different assays were used to explore cytotoxicity of selected compounds as we have detailed previously. (i) Cytotoxicity produced in stationary HFF cells and in growing CEM cells was determined by microscopic inspection of cells used in plaque and RT assays which were not affected by the virus. Turk, S. R., et al., Antimicrob. Agents Chemother. 31:544-550 (1987). (ii) The effect of compounds during two population doublings of KB cells was determined by crystal violet staining and spectrophotometric quantitation of dye eluted from stained cells. Prichard, M. N., et al., Antimicrob. Agents Chemother. 35:1060-1065 (1991).
as §3

Data set [5] has as its system KB cells. In words: Cytotoxicity in KB cells, growth over two population doublings. It counts as cell-based. The protocol: as §1, §4, §3
Data set [6] deals with CEM cells. The data set is described as follows: Cytotoxicity in growing CEM cells, microscopic inspection. It counts as cell-based. The protocol:
as §1, §4, §3

Where [7] appears, read: Example 26, high multiplicity of infection (moi), read-out: HIV-1 IC50, reverse transcriptase assay.
Where [8] appears, read: Example 26, listed as R-1 (B = 2-amino-6-methoxy-purine), Example 22.
Where [9] appears, read: Example 26, listed as S-1 (B = 2-amino-6-methoxy-purine), Example 22.
[10] abbreviates: reverse transcriptase assay, CEM cells, low moi (footnote c of the 5th table), read-out: HIV-1, IC50.
Setting [11] is: KB cell growth, read-out: Cytotoxicity IC50 KB (growth).

Like-named read-outs stand apart in the source and are kept apart here. A value given as a limit tells only on which side of the number the result lay.

For orientation: IC50 means the concentration needed to halve the response being measured.

With `COc1nc(N)nc2c1ncn2C=C1CC1CO` (stereo not drawn) [syn-2-Amino-6-methoxy-N^9-(2-hydroxymethyl-cyclopropylidenemethyl)purine], in data set [1] (Example 26), the IC50 was found to be 3.1 µM and the “activity against HCMV (in words)” value is given as “good activity”. Besides, in data set [2] (Example 26), the “activity against HSV-1 (in words)” value is “significant activity” and the IC50 worked out at 33 µM. In addition, the IC50 in data set [3] (setting [7]) is over 100 µM.

For the compound `[N-]=[N+]=Nc1nc(N)nc2c1ncn2C=C1CC1CO` (stereo not drawn) [syn-2-Amino-6-azido-N^9-(2-hydroxymethyl-cyclopropylidene-methyl)purine], the IC50 was 41 µM in data set [1] (Example 26); over 100 µM in data set [2] (Example 26); over 100 µM in data set [3] (setting [7]); over 100 µM in data set [4]; over 100 µM in data set [5]; over 100 µM in data set [6]. The “activity against HCMV (in words)” value in data set [1] (Example 26) is listed as “good activity”.

`COc1nc(N)nc2c1ncn2C=C1CC1CO` (stereo not shown) [listing 1 of 2 here]: the IC50 was over 100 µM in data set [1] (setting [8]); over 100 µM in data set [2] (setting [8]); over 100 µM in data set [3] (Example 26, high multiplicity of infection (moi), listed as R-1 (B = 2-amino-6-methoxy-purine), Example 22, read-out: HIV-1 IC50, reverse transcriptase assay); over 100 µM in data set [4]; over 100 µM in data set [5]; over 100 µM in data set [6].

Take `Nc1ncnc2c1ncn2/C=C1/C[C@@H]1CO` [S-1 (B = adenine), Example 24, (S)-(+)-Synadenol]: the IC50 in data set [1] (Example 26) is 2.4 µM; in data set [2] (Example 26), 8.8 µM; in data set [3] (setting [7]), 1.2 µM; in data set [4], 100 µM; in data set [5] it was 80 µM; in data set [6], over 100 µM.

For the compound `COc1nc(N)nc2c1ncn2C=C1CC1CO` (stereo not shown) [listing 2 of 2 here], the IC50 stood at 2.5 µM in data set [1] (setting [9]); 20 µM in data set [2] (setting [9]); 42 µM in data set [3] (Example 26, high multiplicity of infection (moi), listed as S-1 (B = 2-amino-6-methoxy-purine), Example 22, read-out: HIV-1 IC50, reverse transcriptase assay).

In the case of `COC(=O)[C@H](C)NP(=O)(OCC1CC1=Cn1cnc2c(N)nc(N)nc21)Oc1ccccc1` (stereo partly drawn) [3 (B = 2,6-diaminopurine), Example 15, Methyl Phenylphosphoro-L-alaninate of syn-2,6-diamino-N^9-(2-Hydroxycyclopropylidene-methyl)purine], the half-inhibitory concentration (IC50) in data set [1] was 4 µM; in data set [2] (BSC-1 cells) it was 50 µM; in data set [3] (setting [10]), 0.26 µM; in data set [4] (stationary HFF cells, visual, read-out: Cytotoxicity IC50 HFF (visual)) it was over 100 µM; in data set [5] (setting [11]) it was 40 µM.

For `COC(=O)[C@H](C)NP(=O)(OCC1CC1=Cn1cnc2c(N)ncnc21)Oc1ccccc1` (stereo partly drawn) [4 (B = adenine), Example 14, Methyl Phenylphosphoro-L-alaninate of anti-N^9-(2-Hydroxymethylcyclopropylidenemethyl)adenine], the IC50 in data set [1] stood at 21 µM; in data set [2] (BSC-1 cells) it was 65 µM; in data set [3] (setting [10]), 1.6 µM; in data set [5] (setting [11]) it was 50 µM; in data set [6] (growing CEM cells, visual, read-out: Cytotoxicity IC50 CEM (visual)) it was 66 µM.

As for `Nc1nc2c(ncn2C=C2CC2CO)c(=O)[nH]1` (stereo not shown) [S-1 (B = guanine), Example 22], the IC50 in data set [1] (Example 26) is 2.5 µM; in data set [2] (Example 26), 45 µM; in data set [3] (setting [7]) it was over 100 µM; in data set [4], over 100 µM; in data set [5] it was over 100 µM; in data set [6], over 100 µM.

Take `Nc1nc(N)c2ncn(C=C3CC3CO)c2n1` (stereo not shown) [S-1 (B = 2,6-diaminopurine), Example 22]: the IC50 is 21 µM in data set [1] (Example 26); over 100 µM in data set [2] (Example 26); over 100 µM in data set [3] (setting [7]); 21 µM in data set [4]; over 100 µM in data set [5]; over 100 µM in data set [6].

In the case of `Nc1nc(Cl)c2ncn(C=C3CC3CO)c2n1` (stereo not shown) [R-1 (B = 2-amino-6-chloropurine), Example 22], the IC50 in data set [1] (Example 26) is 30 µM; in data set [2] (Example 26) it was over 100 µM; in data set [3] (setting [7]), over 100 µM; in data set [4], 32 µM; in data set [5], over 100 µM; in data set [6], over 100 µM.

For the compound `Nc1nc2c(ncn2C=C2CC2CO)c(=O)[nH]1` (stereo not shown) [R-1 (B = guanine), Example 22], the IC50 in data set [1] (Example 26), in data set [2] (Example 26), in data set [3] (setting [7]), in data set [4], in data set [5] and in data set [6] was over 100 µM throughout.

For `Nc1nc(N)c2ncn(C=C3CC3CO)c2n1` (stereo not shown) [R-1 (B = 2,6-diaminopurine), Example 22], the IC50 in data set [1] (Example 26), in data set [2] (Example 26), in data set [3] (setting [7]), in data set [4], in data set [5] and in data set [6] was over 100 µM in each case.

For the compound `Nc1ncnc2c1ncn2/C=C1/C[C@H]1CO` [R-1 (B = adenine), Example 23, (R)-(−)-Synadenol], the IC50 in data set [1] (Example 26) was 2.9 µM; in data set [2] (Example 26), 38 µM; in data set [3] (setting [7]), 7 µM; in data set [4] it was over 100 µM; in data set [5] it was over 100 µM; in data set [6], over 100 µM.

With `Nc1nc(NC2CC2)c2ncn(C=C3CC3CO)c2n1` (stereo not shown) [S-1 (B = 2-aminopurine-6-cyclo-propylaminopurine), Example 2], the IC50 in data set [1] (Example 26) was 1.8 µM; in data set [2] (Example 26) it was 20 µM; in data set [3] (setting [7]), 65 µM; in data set [4], over 100 µM; in data set [5], over 100 µM; in data set [6], over 100 µM.
